The subject of data set [1] is NSCLC cell lines other than H460. Kind of data set: Cytotoxicity in NSCLC tumor models, range over the cell lines other than H460. In kind it is cell-based, human. The conditions noted are these: NSCLC cell lines other than H460, single agents.
For another data set, the system named is H1299. Kind of data set: Cytotoxicity in NSCLC tumor models. In kind it is cell-based, human. Conditions: H1299, p53 null; N = 3. An excerpt:
(§1) The cell lines include cell lines with wild-type p53, cell lines with mutant p53, and cell lines in which p53 has been knocked out (“null”). The properties of these cell lines are described in F. Bunz et al., “Requirement for p53 and p21 to Sustain G2 Arrest After DNA Damage,” Science 282: 1497-1501 (1998), incorporated herein by this reference.

Another data set concerns H157. Kind of data set: Cytotoxicity in NSCLC tumor models. In kind it is cell-based, human. The conditions noted are these: H157, p53 mu; N = 3.
Excerpt: as §1

A further data set concerns A549. The experiment in a line: Cytotoxicity in NSCLC tumor models. In kind it is cell-based, human. Conditions: A549, p53 wt; N = 3.
Excerpt: as §1

The next data set concerns H226. The experiment in a line: Cytotoxicity in NSCLC tumor models. In kind it is cell-based, human. Conditions: H226, p53 wt; N = 3.
Excerpt: as §1

The test system of the next data set is H460. The experiment in a line: Cytotoxicity in NSCLC tumor models. In kind it is cell-based, human. Conditions: H460, p53 wt; N = 3.
Excerpt: as §1

The next data set has as its system H2122. The experiment in a line: Cytotoxicity in NSCLC tumor models. In kind it is cell-based, human. The conditions noted are these: H2122, p53 mu; N = 3.
Excerpt: as §1

The test system of the next data set is H838. Kind of data set: Cytotoxicity in NSCLC tumor models. In kind it is cell-based, human. Conditions: H838, p53 wt; N = 3.
Excerpt: as §1

A further data set concerns SkLU1. The experiment in a line: Cytotoxicity in NSCLC tumor models. In kind it is cell-based, human. Conditions: SkLU1, p53 mu; N = 3.
Excerpt: as §1

For another data set, the system named is H1975. The experiment in a line: Cytotoxicity in NSCLC tumor models. In kind it is cell-based, human. Conditions: H1975, p53 mu; N = 3.
Excerpt: as §1

In another data set the test system is RIF-1 cell-line. The experiment in a line: Standard syngeneic mouse fibrosarcoma model, tumor growth delay. In kind it is in vivo. Conditions: 4 mg/kg, single IP injection, RIF-1 in C3H mice; for Tumor Delay: vs untreated.
The subject of data set [2] is H1975 (TKI-resistant) human lung adenocarcinoma xenograft tumors. The experiment in a line: H1975 NSCLC xenograft tumor model in female Rag2 mice. Here is the method: (§2) Rag2 mice bearing subcutaneous human lung adenocarcinoma xenograft tumors of either TKI-resistant (H1975) or TKI-sensitive (A549) origin were treated.
(§3) Two human NSCLC cell lines, A549 (TKI-sensitive) and H1975 (TKI-resistant), were used as xenograft tumor models in female Rag2 mice. The mice were 6 to 8 weeks of age and weighed 18-23 grams. 10 mice were used per group.
Rag2 mice bearing subcutaneous human lung adenocarcinoma xenograft tumors of either TKI-sensitive (A549) or TKI-resistant (H1975) origin were treated. […] Saline was used as control treatment. Disease progression was evaluated by tumor volume, clinical observations and body weight measurements. Blood samples were analyzed for CBC/differential analyses to assess myelosuppression or other changes in blood chemistry.
Cell number for inoculation was 5×10^6 cells for A549 cells in an injection volume of 50 μL per animal. For H1975 cells, cell number for inoculation was 2×10^6 cells in an injection volume of 50 μL per animal.
Treatment was initiated at average tumor volume of 100-150 mm^3.
Tumor growth delay (TGD) was calculated according to Equation (2): TGD=DTtx−DTcontrol (2).
For these calculations, TV is tumor volume, tx is treatment, int is initial, DT is doubling time for mean tumor volume from 200 mm^3 to 400 mm^3 for A549 or from 300 mm^3 to 600 mm^3 for H1975. MTV is mean tumor volume in mm^3 and TCR is tumor control ratio.
Disease progression was evaluated by tumor volume, clinical observations and body weight measurements.

The test system of data set [3] is A549 (TKI-sensitive) human lung adenocarcinoma xenograft tumors. The experiment in a line: A549 NSCLC xenograft tumor model in female Rag2 mice. Here is the method:
as §2, §3
Cisplatin was used in normal saline at a dose of 5 mg/kg. Administration was intravenous.
Administration was intraperitoneal.
Treatment was initiated at a tumor volume of 100 mm^3 to 150 mm^3.
The cells were started from a frozen vial of lab stock that were frozen down from the ATCC original vial and kept in liquid nitrogen. Cell cultures with a passage number of 3 to 10 and a confluence of 80%-90% were used. […] Cells were subcultured once weekly with a split ratio 1:3 to 1:8 and expanded.
For cell preparation and harvesting for subcutaneous (s.c.) inoculation, the cells were rinsed briefly once with Hanks Balanced Salt Solution without calcium or magnesium. […] The cells were allowed to sit at 37° C. for a few minutes. The cells were observed under an inverted microscope until the cell layer was dispersed, fresh medium was added, 50 μL of cell suspension was taken and mixed with trypan blue (1:1), and the cells were counted and cell viability assessed by using Cellometer Auto T4. The cells were centrifuged at 200×g for 7 minutes and the supernatant was aspirated. The cells were resuspended in growth medium to obtain a concentration of 100×10^6 cells/mL. For inoculation, 5×10^6 cells were used in an injection volume of 50 μL per mouse in 1:1 Matrigel.
On day 0, tumor cells were implanted subcutaneously into mice in a volume of 50 μL in Matrigel using a 28-gauge needle; injection of the tumor cells was in the back of the mice. Mice were randomly assigned to groups based on tumor volume.
For administration, 5 mL of 0.9% sodium chloride for injection, USP (saline) was added to yield a DAG solution with a concentration of 8 mg/mL.
Mice were injected with the required volume to administer the prescribed dose (mg/kg) to the animals based on individual mouse weights using a 28-gauge needle. The injection volume was 200 μL for a 20-g mouse. The mice were briefly (less than 30 seconds) restrained during intravenous injections. Dilation of the vein for intravenous injections was achieved by holding the animals under a heat lamp for a period of between 1-2 minutes.
Mice were individually weighed and injected intraperitoneally according to body weight at the specified injection concentration (see Table 1). The injection volume was based on 200 μL per 20-g mouse. The abdominal surface was wiped down with 70% isopropyl alcohol to clean the injection site.
Tumor growth was monitored by measuring tumor dimensions with calipers beginning on the first day of treatment. Tumor length and width measurements were obtained each Monday, Wednesday, and Friday. Tumor volumes were calculated according to the equation L×W^2/2 with the length (in mm) being defined as the longer axis of the tumor. Animals were weighed at the time of tumor measurement. Tumors were allowed to grow to a maximum of 800 mm^3 before termination.
All animals had blood collected by cardiac puncture at termination for CBC (complete blood count) with differentiation.
In particular, signs of ill-health were based on body weight loss, change in appetite, and behavioral signs such as altered gait, lethargy, and gross manifestations of stress.

The conditions of data set [4]: cited from earlier work.
[5] abbreviates: 5 mg/kg i.v. Q7D × 3, A549 model.
The mark [6] stands for this setting: group 2, 5 mg/kg Q7D×3 i.v., A549 model, days post-inoculation.

Structures are written as SMILES. “Also recorded” adds a separate entry of the source.

One may read the IC50 as the point on the concentration scale where inhibition reaches its midpoint. The low end stands for higher potency, the high end for lower potency. For the compound `O=C1[O][Pt]2([NH][C@@H]3CCCC[C@H]3[NH]2)[O]C1=O` [Oxaliplatin, oxaliplatin], the half-inhibitory concentration (IC50) is 600 to 2600 nM in [1]; 0.64 µM in the data set on H1299; 2.04 µM in the data set on H157; 0.57 µM with A549; 0.82 µM in the data set on H226; 0.36 µM in the data set on H460. The 50% inhibitory concentration (IC50) with H2122 amounted to 1.42 µM; in the data set on H838, 2.63 µM; with SkLU1, 2.02 µM; in the data set with H1975, 0.51 µM.
With `N.N.[Cl][Pt][Cl]` [Cisplatin, cisplatin, reference compound], the “Days to 4 × Median Tumor Size” value in the data set on RIF-1 cell-line is 7.75 days. The results for the “Tumor Delay” value in the data set on RIF-1 cell-line and in the data set with RIF-1 cell-line (listed as cisplatin) were 1.45 days and 1.5 days, respectively. Moreover, in data set [2] (5 mg/kg i.v. Q7D × 3), the “MTV at Day 31” value was 381 mm^3. For the same compound, the “Median survival” value in data set [2] (5 mg/kg i.v. Q7D × 3) is on record as 31 days; in data set [3] (setting [5]) it was 72 days. Besides, in [2] (5 mg/kg i.v. Q7D × 3 (group 2)), the body weight result is listed as “Body weight loss was observed”. The “TCR at Day 31” value in [2] (5 mg/kg i.v. Q7D × 3, tumor control ratio) worked out at 0.83. Also, the half-maximal inhibitory concentration (IC50) was 500 to 2200 nM in [1]; 1.2 µM in the data set on H1299; 2.16 µM with H157; 0.74 µM in the data set with A549; 1.82 µM with H226; 0.45 µM in the data set with H460. Moreover, the IC50 in the data set on H2122 amounted to 1.07 µM; with H838, 1.18 µM; with SkLU1, 0.89 µM; in the data set on H1975 it was 0.45 µM. In addition, in data set [3] (setting [5]), the “MTV at Day 68” value stood at 460 mm^3. Besides, the “TCR at Day 68” value in data set [3] (5 mg/kg i.v. Q7D × 3, A549 model, tumor control ratio) was 0.72. For the same compound, the “TGD” value in data set [3] (5 mg/kg i.v. Q7D × 3, A549 model, tumor growth delay vs untreated control, doubling time 200 to 400 mm^3) is given as 4 days. Moreover, the “TGI (%)” value in data set [3] (5 mg/kg i.v. Q7D × 3, A549 model, tumor growth inhibition) stood at 29%. In addition, the “body weight / tolerability of the dosage” value in [3] (5 mg/kg i.v. Q7D × 3, A549 tumor-bearing Rag2 mice) is recorded as “body weight loss was observed; also recorded: near the MTD”. Besides, the “number of animals remaining on study on day 70” value in data set [3] (group 2, 5 mg/kg Q7D×3 i.v., A549 model) is given as 6/10. The “day on which a mean tumor volume of 200 mm^3 was observed” value in [3] (setting [6]) was 49 days. In data set [3] (setting [6]), the “day on which a mean tumor volume of 400 mm^3 was reached” value was found to be 66 days. The doubling time in data set [3] (group 2, 5 mg/kg Q7D×3 i.v., A549 model, mean tumor volume 200 to 400 mm^3) stood at 17.
In the case of `O[C@H]([C@H](O)[C@@H](O)CBr)[C@H](O)CBr` [dibromodulcitol], the “absorption by the oral route” value in [4] was “rapid and fairly complete”.

The values above are taken from US11541027B2 (DelMar Pharmaceuticals, Inc., priority 2014, dated 2023).
